Measurements as given in the NIST ThermoML archive (doi:10.1016/j.tca.2017.09.024).
Numbers after ± are expanded uncertainties.

Conditions: Crystal; DTA

| SMILES | Normal melting temperature [°C] |
| --- | --- |
| c1ccccc1 [benzene] | 5.6 ± 2 |
| Fc1ccccc1 [fluorobenzene] | -41.9 ± 2 |
